# Results as given in publication PMC4167557 (Nanomedicine (London, England), 2014).
# Bridges are numbered along the chain shown (N, C = ends). Where no end group is shown, it is not given here.
# How the values were obtained:
# [1] = system: Caspase 3/7 in heart tissues; assay: Caspase-Glo 3/7 assay in heart tissue; assay type: in vivo; conditions: 25 mg/kg, 5 days after treatment
# [2] = system: vital organs (heart, liver, spleen, lung, kidney); assay: Histological analysis of organ toxicity; assay type: in vivo; conditions: mice, 5 days after treatment
# [3] = Pharmacokinetics in rats after single intravenous injection; assay type: in vivo, Sprague–Dawley rats
# [4] = system: K562-CLL1 xenograft; assay: Efficacy in mice bearing K562-CLL1 xenograft; assay type: in vivo, nude mice; conditions: 10 mg/kg every 3 days
# [5] = system: plasma creatine kinase MB isoenzyme; assay: Plasma CK-MB ELISA; assay type: in vivo; conditions: mice, single dose DNR 15 mg/kg
# [6] = Pharmacokinetics in mice after single intravenous injection; assay type: in vivo, BALB/c mice
# [7] = system: plasma cardiac troponin T (cTnT); assay: Plasma cardiac troponin T ELISA; assay type: in vivo; conditions: single dose DNR 15 mg/kg
# [8] = system: CLL1-expressing cells; conditions: therapeutic concentration of approximately 4 µM ref 8; cited from earlier work
# [9] = Sprague-Dawley, rat, plasma, iv, 5 mg/kg
# [10] = rats, 5 mg/kg DNR iv, mean ± SD
# [11] = BALB/c, mouse, plasma, iv, 10 mg/kg
# [12] = mice, 10 mg/kg DNR iv, mean ± SD
compound,measurement,setting,value
"COc1cccc2c1C(=O)c1c(O)c3c(c(O)c1C2=O)C[C@@](O)(C(C)=O)C[C@@H]3O[C@H]1C[C@H](N)[C@H](O)[C@H](C)O1 [Free DNR, daunorubicin]",caspase 3/7 activity in cardiac tissue relative to control mice treated with PBS,[1],about 3.46 times
same,histopathological changes in cardiac tissue,[2]; 25 mg/kg,marked myocardial toxicity
same,histopathological changes in spleen,[2]; low- or high-dose (5 and 25 mg/kg),Marked red pulp hemorrhage-associated compensative sinusoidal histocytic proliferation and extramedullary hematopoiesis
same,AUC(0-t),[3]; [9],3600 ± 790 ng·h/mL
same,Cmax,[3]; [9],1910 ± 260 ng/mL
same,MRT,[3]; [9],36.2 ± 6.51 h
same,Vd,[3]; [9],50.8 L/kg
same,clearance,[3]; [9],23.7 ± 5.2 mL/min/kg
same,half-life,"[3]; Sprague-Dawley, rat, plasma, iv, 5 mg/kg, T 1/2β, rats, 5 mg/kg DNR iv",1520 ± 272 min
same,T 1/2α,"[3]; rats, 5 mg/kg DNR iv",0.94 ± 0.00 min
same,Kel,[3]; [10],0.01 ± 0.00
same,α,[3]; [10],0.74 ± 0.00 min⁻¹
same,β,[3]; [10],0.00 ± 0.00 min⁻¹
same,overall survival,[4],44 days
same,plasma CK-MB level,[5]; 3 h after dosing,60.02 ± 4.05 U/l
same,plasma CK-MB level,[5]; 5 days of follow-up,113.98 ± 10.42 U/l
same,AUC(0-t),[6]; [11],836 ± 151 µg·h/mL
same,Cmax,[6]; [11],961 ± 92 µg/mL
same,MRT,[6]; [11],16.7 h
same,Vd,[6]; [11],0.205 ± 0.048 L/kg
same,clearance,[6]; [11],0.2 ± 0.03 mL/min/kg
same,concentration at 24 h,[6]; [11],13600 ± 1920 ng/mL
same,half-life,"[6]; BALB/c, mouse, plasma, iv, 10 mg/kg, T 1/2β, mice, 10 mg/kg DNR iv",714 ± 60 min
same,T 1/2α,"[6]; mice, 10 mg/kg DNR iv, initial half-life in plasma",1.11 ± 0.04 min
same,Kel,[6]; [12],3.68 ± 6.35
same,α,[6]; [12],0.63 ± 0.02 min⁻¹
same,β,[6]; [12],0.0001 min⁻¹
same,cTnT level relative to control mice,[7]; 1 day after dosing,9.15 times
same,cTnT level relative to control mice,[7]; 3 days (peak),15.8 times
"CLL1-targeting ligand: CLL1-targeting peptide (amino acid sequence: CDLRSAAVC), cyclized via disulfide (disulfide 1-9 (inferred))",increase of micelle-mediated drug delivery to CLL1-expressing cells,[8],approximately threefold
